In patent US20160376240A1, “6 Phenyl or 6 Pyridin 3 YL Indazole Derivatives and Methods of Use” (ABBVIE INC., priority 2014, published 2016):

Target: T1, TrkA (Homo sapiens, UniProt P04629)
T1 construct: purchased Invitrogen PV3144
Assay: TrkA kinase inhibition, HTRF assay
Type: biochemical
Conditions: LCK peptide substrate 125 nM, TrkA 2-10 nM pre-incubated with ATP 200 μM
Outline: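 TrkA (2-10 nM) preactivated 20 min with 200 μM ATP in HEPES pH 7.4 with Mg2+/Mn2+, then compound for 10 min, then 125 nM biotinylated LCK-peptide for 1 h at ambient temperature. HTRF 665/620 ratio read; IC50 fitted from initial-rate percent inhibition.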

T1 sequence (P04629 33-796): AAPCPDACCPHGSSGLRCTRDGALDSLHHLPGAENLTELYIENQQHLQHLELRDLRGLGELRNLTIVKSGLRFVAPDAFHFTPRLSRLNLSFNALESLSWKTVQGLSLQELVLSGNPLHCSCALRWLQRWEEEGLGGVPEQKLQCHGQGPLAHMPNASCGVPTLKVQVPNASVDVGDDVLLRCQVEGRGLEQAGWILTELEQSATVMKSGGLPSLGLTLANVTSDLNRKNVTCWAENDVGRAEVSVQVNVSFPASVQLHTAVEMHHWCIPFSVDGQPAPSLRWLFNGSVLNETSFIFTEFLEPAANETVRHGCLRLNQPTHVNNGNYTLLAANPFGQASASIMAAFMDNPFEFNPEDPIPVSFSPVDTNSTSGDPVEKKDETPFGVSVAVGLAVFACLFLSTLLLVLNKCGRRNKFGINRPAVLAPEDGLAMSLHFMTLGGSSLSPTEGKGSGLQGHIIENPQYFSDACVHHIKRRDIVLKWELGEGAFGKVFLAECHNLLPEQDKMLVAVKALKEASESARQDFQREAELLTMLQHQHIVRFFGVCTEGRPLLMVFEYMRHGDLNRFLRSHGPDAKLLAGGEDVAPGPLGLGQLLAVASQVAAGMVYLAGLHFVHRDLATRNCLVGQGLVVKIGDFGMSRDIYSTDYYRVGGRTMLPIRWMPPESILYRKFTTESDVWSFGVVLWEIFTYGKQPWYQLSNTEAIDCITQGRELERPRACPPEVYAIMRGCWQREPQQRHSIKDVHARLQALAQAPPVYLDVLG

Row | Compound | IC50 [nM]
1 | CNC(=O)c1ccc(-c2cc(OC3CCOCC3)c3c(C)n[nH]c3c2)cc1N1CCN(Cc2cccnc2)CC1 [Example 123, N-methyl-4-[3-methyl-4-(tetrahydro-2H-pyran-4-yloxy)-1H-indazol-6-yl]-2-[4-(pyridin-3-ylmethyl)piperazin-1-yl]benzamide] | 3.75
2 | CNC(=O)c1ccc(-c2cc(OC3CCOCC3)c3c(C)n[nH]c3c2)cc1N1CCN(C(=O)C2CC2)CC1 [Example 124, 2-[4-(cyclopropylcarbonyl)piperazin-1-yl]-N-methyl-4-[3-methyl-4-(tetrahydro-2H-pyran-4-yloxy)-1H-indazol-6-yl]benzamide] | 19.2
3 | CNC(=O)c1ccc(-c2cc(OC3CCOCC3)c3c(C)n[nH]c3c2)cc1OCCOC1CCCCC1 [Example 126, 2-[2-(cyclohexyloxy)ethoxy]-N-methyl-4-[3-methyl-4-(tetrahydro-2H-pyran-4-yloxy)-1H-indazol-6-yl]benzamide] | 4.74
4 | CC(=O)Nc1ccc(-c2cc(OC3CCCC3)c3c(C)n[nH]c3c2)cc1NCCOc1ccccc1 [Example 127, N-{4-[4-(cyclopentyloxy)-3-methyl-1H-indazol-6-yl]-2-[(2-phenoxyethyl)amino]phenyl}acetamide] | 49
5 | CNC(=O)c1ccc(-c2cc(OC3CCCC3)c3c(C)n[nH]c3c2)cc1N1CCN(C(=O)OCC(C)C)CC1 [Example 128, isobutyl 4-{5-[4-(cyclopentyloxy)-3-methyl-1H-indazol-6-yl]-2-(methylcarbamoyl)phenyl}piperazine-1-carboxylate] | 214
6 | CNC(=O)c1ccc(-c2cc(OC3CCCC3)c3c(C)n[nH]c3c2)cc1N1CCN(C(=O)OCc2ccccc2)CC1 [Example 129, benzyl 4-{5-[4-(cyclopentyloxy)-3-methyl-1H-indazol-6-yl]-2-(methylcarbamoyl)phenyl}piperazine-1-carboxylate] | 50.8
7 | C=CC(=O)Nc1ccc(-c2cc(OC3CCOCC3)c3c(C)n[nH]c3c2)cc1N1CCN(C2CCCCC2)CC1 [Example 131, N-{2-(4-cyclohexylpiperazin-1-yl)-4-[3-methyl-4-(tetrahydro-2H-pyran-4-yloxy)-1H-indazol-6-yl]phenyl}acrylamide] | 46.9
8 | Cc1n[nH]c2cc(-c3ccc(C(N)=O)cc3)cc(OC3CCOCC3)c12 [Example 132, 4-[3-methyl-4-(tetrahydro-2H-pyran-4-yloxy)-1H-indazol-6-yl]benzamide] | 34.1
9 | CC(=O)C(=O)Nc1ccc(-c2cc(OC3CCOCC3)c3c(C)n[nH]c3c2)cc1N1CCN(C2CCCCC2)CC1 [Example 133, N-{2-(4-cyclohexylpiperazin-1-yl)-4-[3-methyl-4-(tetrahydro-2H-pyran-4-yloxy)-1H-indazol-6-yl]phenyl}-2-oxopropanamide] | 15.9
10 | CCOC(=O)N1CCN(c2cc(-c3cc(OC4CCOCC4)c4c(C)n[nH]c4c3)ccc2C(=O)NC)CC1 [Example 134, ethyl 4-{2-(methylcarbamoyl)-5-[3-methyl-4-(tetrahydro-2H-pyran-4-yloxy)-1H-indazol-6-yl]phenyl}piperazine-1-carboxylate] | 12.7
11 | CCCOC(=O)N1CCN(c2cc(-c3cc(OC4CCOCC4)c4c(C)n[nH]c4c3)ccc2C(=O)NC)CC1 [Example 135, propyl 4-{2-(methylcarbamoyl)-5-[3-methyl-4-(tetrahydro-2H-pyran-4-yloxy)-1H-indazol-6-yl]phenyl}piperazine-1-carboxylate] | 8.29
12 | CNC(=O)c1ccc(-c2cc(OC3CCOCC3)c3c(C)n[nH]c3c2)cc1N1CCN(C(=O)OCC(F)(F)F)CC1 [Example 136, 2,2,2-trifluoroethyl 4-{2-(methylcarbamoyl)-5-[3-methyl-4-(tetrahydro-2H-pyran-4-yloxy)-1H-indazol-6-yl]phenyl}piperazine-1-carboxylate] | 18.1
13 | CNC(=O)c1ccc(-c2cc(OC3CCOCC3)c3c(C)n[nH]c3c2)cc1N1CCN(C(=O)OCC(C)(C)C)CC1 [Example 137, 2,2-dimethylpropyl 4-{2-(methylcarbamoyl)-5-[3-methyl-4-(tetrahydro-2H-pyran-4-yloxy)-1H-indazol-6-yl]phenyl}piperazine-1-carboxylate] | 57.3
